Reference: US20040200144A1, “Plant growth regulator and a method of producing the regulator” (Dainichiseika Color & Chemicals Mfg. Co., Ltd., priority 2003, published 2004)

Columns and labels:
Format in all cases: in vivo
[1] = tested on: qing-geng-cai young plants; assay: Dwarfing test of qing-geng-cai young plant; details: for Plant Height / Dwarfing Rate: 5 ml per cell on 5th day, measured 20th day; for Dwarfing Rate: vs comparative group
Procedure: (§1) 50 g of sodium tripolyphosphate was dissolved in 400 ml of distilled water at 80° C., 17.5 g of cinnamic acid was added to the sodium tripolyphosphate solution and dissolved by stirring, the resultant solution was diluted with distilled water until the total volume of solution was 500 ml, and thus 3.5% cinnamic acid aqueous solution (pH 6.5) was prepared. The aqueous solution was further diluted with distilled water 70 times or 17.5 times, and 0.05% cinnamic acid aqueous solution and 0.2% cinnamic acid aqueous solution were prepared, respectively.
(§2) Nursery soil for house use was filled into paper joint pots (each with 24 cells: 34×43×50 mm/cell), water was sufficiently given to the soil, and seeds of carrots were sowed. After seeding, the pot was placed in the same greenhouse as described above to sprout. Subsequently, on the 5th day, the cinnamic aqueous acid solutions were added to the nursery soil in the joint pots. One of the joint pots (24 cells) was prepared as a 0.05% cinnamic acid aqueous solution addition group, and 5 ml of the 0.05% cinnamic acid aqueous solution was added to the nursery soil of each cell. Another one of the join pots was prepared as a 0.2% cinnamic acid aqueous solution addition group, and 5 ml of the 0.2% cinnamic acid aqueous solution was added to the nursery soil of each cell. The other one of the joint pots was prepared as a comparative group in which 5 ml of water is added to each cell, instead of the cinnamic acid aqueous solution. Subsequently, the cultivation of carrot young plants in each group was continued under general conditions. On the 27th day, the heights of young plants in each group were measured, the dwarfing rate (%) was calculated, and the dwarfing effect of cinnamic acid aqueous solution on carrot young plants was examined. […].
In the same way as in Example 5 except that seeds of […] were sowed, and that plant heights were measured on the 20th day, the dwarfing effect of cinnamic acid aqueous solution on qing-geng-cai young plants was examined. […]

[2] = tested on: cauliflower young plants; assay: Dwarfing test of cauliflower young plant; details: for Plant Height / Dwarfing Rate: 5 ml per cell on 4th day, measured 20th day; for Dwarfing Rate: vs comparative group
Procedure: [The source words this procedure for another target and says it was used here with some conditions changed.] as §1, §2

[3] = tested on: burdock young plants; assay: Dwarfing test of burdock young plant; details: for Plant Height / Dwarfing Rate: 5 ml per cell on 4th day, measured 20th day; for Dwarfing Rate: vs comparative group
Procedure: as §1, §2
In the same way as in Example 12 except that seeds of burdock were sowed, the dwarfing effect of cinnamic acid aqueous solution on burdock young plants was examined. […]

[4] = tested on: watermelon young plants; assay: Dwarfing test of watermelon young plant; details: for Plant Height / Dwarfing Rate: 5 ml per cell on 7th day, measured 27th day; for Dwarfing Rate: vs comparative group
Procedure: After seeding, the pot was placed in the same greenhouse as described above to sprout. Subsequently, on the 5th day, the cinnamic aqueous acid solutions were added to the nursery soil in the joint pots. One of the joint pots (24 cells) was prepared as a 0.05% cinnamic acid aqueous solution addition group, and 5 ml of the 0.05% cinnamic acid aqueous solution was added to the nursery soil of each cell. Another one of the join pots was prepared as a 0.2% cinnamic acid aqueous solution addition group, and 5 ml of the 0.2% cinnamic acid aqueous solution was added to the nursery soil of each cell. […] Subsequently, the cultivation of carrot young plants in each group was continued under general conditions. On the 27th day, the heights of young plants in each group were measured, the dwarfing rate (%) was calculated, and the dwarfing effect of cinnamic acid aqueous solution on carrot young plants was examined. From the results in Table 5, it became evident that the 0.05% and 0.2% cinnamic acid aqueous solutions are effective in dwarfing carrot young plants. In the same way as in Example 5 except that seeds of cauliflower were sowed, the cinnamic acid solutions were added to the nursery soil in the joint pot on the 4th day, and that heights of young plants in each group were measured on the 20th day, the dwarfing effect of cinnamic acid aqueous solution on cauliflower young plants was examined. From the results in Table 12, it became evident that the cinnamic acid aqueous solutions are effective in dwarfing cauliflower young plants. In the same way as in Example 12 except that seeds of tomato were sowed, and that the cinnamic acid solutions were added to the nursery soil of the joint pot on the 7th day, the dwarfing effect of cinnamic acid aqueous solution on tomato young plants was examined. From the results in Table 17, it became evident that the cinnamic acid aqueous solutions are effective in dwarfing tomato young plants. In the same way as in Example 17 except that seeds of watermelon were sowed, and that plant heights were measured on the 27th day, the dwarfing effect of cinnamic acid aqueous solution on watermelon young plants was examined. From the results in Table 21, it became evident that the cinnamic acid aqueous solutions are effective in dwarfing watermelon young plants.

[5] = tested on: prince melon young plants; assay: Dwarfing test of prince melon young plant; details: for Plant Height / Dwarfing Rate: 5 ml per cell on 7th day, measured 27th day; for Dwarfing Rate: vs comparative group
Procedure: as §1, §2
In the same way as in Example 12 except that seeds of tomato were sowed, and that the cinnamic acid solutions were added to the nursery soil of the joint pot on the 7th day, the dwarfing effect of cinnamic acid aqueous solution on tomato young plants was examined. […].
In the same way as in Example 17 except that seeds of watermelon were sowed, and that plant heights were measured on the 27th day, the dwarfing effect of cinnamic acid aqueous solution on watermelon young plants was examined. […].
In the same way as in Example 21 except that seeds of prince melon were sowed, the dwarfing effect of cinnamic acid aqueous solution on prince melon young plants was examined. […]

In the case of `O=C(O)C=Cc1ccccc1` [cinnamic acid], the “Plant Height” value ([1]; 0.05% aqueous solution) is reported as 6.3 cm, the “Dwarfing Rate” value ([1]; 0.05% aqueous solution) is reported as 7.4% and the “Plant Height” value ([1]; 0.2% aqueous solution) is reported as 4.3 cm. The “Dwarfing Rate” value ([1]; 0.2% aqueous solution) was 36.8%, the dwarfing effect ([1]; qing-geng-cai young plants, 0.05% and 0.2% aqueous solutions) was “effective” and the “Plant Height” value ([2]; 0.05% aqueous solution) was 6.8 cm. The “Dwarfing Rate” value ([2]; 0.05% aqueous solution) was 22.7%, the “Plant Height” value ([2]; 0.2% aqueous solution) was 5.0 cm and the “Dwarfing Rate” value ([2]; 0.2% aqueous solution) was 43.2%. The dwarfing effect ([2]; cauliflower young plants, 0.05% and 0.2% aqueous solutions) was “effective”, the “Plant Height” value ([3]; 0.05% aqueous solution) was 4.9 cm and the “Dwarfing Rate” value ([3]; 0.05% aqueous solution) was 21.0%. The “Plant Height” value ([3]; 0.2% aqueous solution) was 4.3 cm, the “Dwarfing Rate” value ([3]; 0.2% aqueous solution) was 30.6% and the dwarfing effect ([3]; burdock young plants, 0.05% and 0.2% aqueous solutions) was “effective”. The “Plant Height” value ([4]; 0.05% aqueous solution) was 9.3 cm, the “Dwarfing Rate” value ([4]; 0.05% aqueous solution) was 15.5% and the “Plant Height” value ([4]; 0.2% aqueous solution) was 7.9 cm. For the same compound, the “Dwarfing Rate” value ([4]; 0.2% aqueous solution) was 28.2%, the dwarfing effect ([4]; watermelon young plants, 0.05% and 0.2% aqueous solutions) was “effective” and the “Plant Height” value ([5]; 0.05% aqueous solution) was 5.3 cm. The “Dwarfing Rate” value ([5]; 0.05% aqueous solution) was 5.4%, the “Plant Height” value ([5]; 0.2% aqueous solution) was 4.1 cm and the “Dwarfing Rate” value ([5]; 0.2% aqueous solution) was 26.8%. For the same compound, the dwarfing effect ([5]; prince melon young plants, 0.05% and 0.2% aqueous solutions) was “effective”.
